Tested on: mitochondrial membrane potential
Assay: Mitochondrial membrane potential with fluorescent dye JC-1
Assay type: cell-based, mouse
Conditions: microscopy; FIG. 15
Excerpt: For MA-Cell, and CPC prepared in Example 1, the mitochondrial membrane potential was examined using fluorescent dye JC-1 (Invitrogen) in accordance with manufacturer's protocol. JC-1 emits red fluorescence with a wavelength of 590 nm when accumulating on polarized mitochondria, and JC-1 is diffused into the cytoplasm to emit green fluorescence with a wavelength of 529 nm when mitochondria are depolarized (the membrane potential is eliminated).
Further, for 19 cells for each of MA-Cell and CPC, a ratio of the fluorescence intensity of polarized mitochondria (red, Dimer) to the fluorescence intensity of depolarized mitochondria (green, Monomer) (Dimer/Monomer ratio) was calculated (FIG. 16).

## N#CC(C#N)=NNc1ccc(OC(F)(F)F)cc1 [FCCP]
  JC-1 red fluorescence (polarized mitochondria): red fluorescence was substantially eliminated

Reference: patent publication US20200032214A1, “METHOD FOR PRODUCING MYOCARDIAL STEM CELL USED FOR TREATMENT AND/OR PREVENTION OF CARDIAC ARREST” (LUCA Science Inc., priority 2016, published 2020)
